Measured values published in patent publication US10624912B2, “Spirocyclic Pyridotriazine Derivatives useful as HIV integrase inhibitors” (priority 2015, dated 2020).
Where two headings read alike, the source gives them in different places.

Test system: HIV-1
Test: HIV-1 infection assay (antiviral potency, MT4-GFP reporter cells)
Format: cell-based
Experimental: HIV-1 replication was monitored using MT4-gag-GFP clone D3 (hereafter designate MT4-GFP), which are MT-4 cells modified to harbor a GFP reporter gene, the expression of which is dependent on the HIV-1 expressed proteins tat and rev. Productive infection of an MT4-GFP cell with HIV-1 results in GFP expression approximately 24 h post-infection.
MT4-GFP cells were maintained at 37° C./5% CO2/90% relative humidity in RPMI 1640 supplemented with 10% fetal bovine serum, 100 U/ml penicillin/streptomycin, and 400 μg/ml G418 to maintain the reporter gene. For infections, MT4-GFP cells were placed in the same medium lacking G418 and infected overnight with H9IIIB or NL4-3 virus at an approximate multiplicity of infection of 0.01 in the same incubation conditions. Cells were then washed and resuspended in either RPMI 1640 containing no serum at 1.6×10^5 cells/mL (serum free conditions), 10% normal human serum at 1.6×10^5 cells/mL (10% NHS conditions) or in 100% normal human serum at 2×10^5 cells/mL (100% NHS conditions). Compound plates were prepared by dispensing compounds taken up in DMSO into wells of 384 well poly D lysine-coated plates (0.2 μl/well) using an ECHO acoustic dispenser. Each compound was tested in a 10 point serial 3-fold dilution (typical final concentrations: 4.2 μM-0.21 nM). Controls included no inhibitor (DMSO only) and a combination of three antiviral agents (efavirenz, indinavir, and the integrase strand transfer inhibitor L-002254051 at final concentrations of 4 μM each). Cells were added (50 μL/well) to compound plates and the infected cells were maintained at 37° C./5% CO2/90% relative humidity.
Infected cells were quantified at two time points, ˜48 h and ˜72 h post-infection, by counting the number of green cells in each well using an Acumen eX3 scanner. The increase in the number of green cells over ˜24 h period gives the reproductive ratio, R0, which is typically 5-15 and has been shown experimentally to be in logarithmic phase (data not shown). Inhibition of R0 is calculated for each well, and IC50 value was determined using non-linear 4-parameter curve fitting.

[1] = Human immunodeficiency virus 1, NL43, MT4-GFP cells infected with H9IIIB or NL4-3 virus, 100% normal human serum, inhibition of reproductive ratio R0, read-out: VIKING IP (nM) with 100% NHS
[2] = Human immunodeficiency virus 1, NL43, MT4-GFP cells infected with H9IIIB or NL4-3 virus, serum free conditions (0% NHS), inhibition of reproductive ratio R0, read-out: VIKING IP (nM) with 0% NHS
[3] = Human immunodeficiency virus 1, NL43, read-out: VIKING IP (nM) with 0% NHS

| Structure (SMILES) | IC50 [1] [nM] | IC50 [2] [nM] | IC50 [3] [nM] |
| --- | --- | --- | --- |
| CC(C)OC(=O)OCOP(=O)(CCCN1C(=O)c2c(O)c(=O)c(C(=O)NCc3ccc(F)cc3F)cn2N(CCP(=O)(OCOC(=O)OC(C)C)OCOC(=O)OC(C)C)C12CCOC2)OCOC(=O)OC(C)C (racemic) [Compound 49] | 8.8 | 0.3 |  |
| CCCOP(=O)(CCN1n2cc(C(=O)NCc3ccc(F)cc3F)c(=O)c(O)c2C(=O)N(C)[C@]12CCOC2)OCC (single isomer, unassigned) [Compound 6] | 45.9 | 2 |  |
| CN1C(=O)c2c(O)c(=O)c(C(=O)NCc3ccc(F)cc3F)cn2N(CCP(=O)(O)O)[C@]12CCOC2 (single isomer, unassigned) [Compound 9] | 961 | 23.3 |  |
| CN1C(=O)c2c(O)c(=O)c(C(=O)NCc3ccc(F)cc3F)cn2N(CCP(=O)(O)O)[C@@]12CCOC2 (single isomer, unassigned) [Compound 10] | 449 | 14.4 |  |
| CCOP(=O)(CCN1C(=O)c2c(O)c(=O)c(C(=O)NCc3ccc(F)cc3F)cn2N(C)C12CCOC2)OCC (single isomer, unassigned) [Compound 45] | 118 | 2.9 |  |
| CN1n2cc(C(=O)NCc3ccc(F)cc3F)c(=O)c(O)c2C(=O)N(CCP(=O)(O)O)C12CCOC2 (single isomer, unassigned) [Compound 46] | 775 | 92.1 |  |
| CC(C)OC(=O)OCOP(=O)(CCN1C(=O)c2c(O)c(=O)c(C(=O)NCc3ccc(F)cc3F)cn2N(C)C12CCOC2)OCOC(=O)OC(C)C (single isomer, unassigned) [Compound 47] | 106 | 2.9 |  |
| CC(C)OC(=O)[C@H](C)NP(=O)(CCN1C(=O)c2c(O)c(=O)c(C(=O)NCc3ccc(F)cc3F)cn2N(C)C12CCOC2)Oc1ccccc1 (single isomer, unassigned) [Compound 48] |  |  | 23.8 |
| CC(C)OC(=O)OCOP(=O)(CCN1n2cc(C(=O)NCc3ccc(F)cc3F)c(=O)c(O)c2C(=O)N(C)[C@@]12CCOC2)OCOC(=O)OC(C)C [Compound 11] | 1.5 | 0.05 |  |
| CC(C)OC(=O)OCOP(=O)(O)CCN1n2cc(C(=O)NCc3ccc(F)cc3F)c(=O)c(O)c2C(=O)N(C)[C@@]12CCOC2 [Compound 12] | 156 | 0.8 |  |
| CC(C)OC(=O)OCOP(=O)(CCN1n2cc(C(=O)NCc3ccc(F)cc3F)c(=O)c(O)c2C(=O)N(C)[C@]12CCOC2)OCOC(=O)OC(C)C [Compound 13] | 1.8 | 0.04 |  |
| CC(C)OC(=O)OCOP(=O)(O)CCN1n2cc(C(=O)NCc3ccc(F)cc3F)c(=O)c(O)c2C(=O)N(C)[C@]12CCOC2 [Compound 14] | 89 | 1.6 |  |
| CC(C)OC(=O)[C@H](C)NP(=O)(CCN1n2cc(C(=O)NCc3ccc(F)cc3F)c(=O)c(O)c2C(=O)N(C)[C@@]12CCOC2)Oc1ccccc1 (some centres unmarked) [Compound 15] |  |  | 3.9 |
| CC(C)OC(=O)[C@H](C)NP(=O)(CCN1n2cc(C(=O)NCc3ccc(F)cc3F)c(=O)c(O)c2C(=O)N(C)[C@]12CCOC2)Oc1ccccc1 (some centres unmarked) [Compound 16] |  |  | 3.7 |
| CCOP(=O)(CCN1C(=O)c2c(O)c(=O)c(C(=O)NCc3ccc(F)cc3F)cn2N(C)C12CCOC2)OCC (centres unmarked) [Compound 40] | 92.6 | 3.6 |  |
| CN1n2cc(C(=O)NCc3ccc(F)cc3F)c(=O)c(O)c2C(=O)N(CCP(=O)(O)O)C12CCOC2 (centres unmarked) [Compound 42] | 447 | 54.8 |  |
| CC(C)OC(=O)OCOP(=O)(CCN1C(=O)c2c(O)c(=O)c(C(=O)NCc3ccc(F)cc3F)cn2N(C)C12CCOC2)OCOC(=O)OC(C)C (centres unmarked) [Compound 43] | 43.4 | 1.2 |  |
| CC(C)OC(=O)[C@H](C)NP(=O)(CCN1C(=O)c2c(O)c(=O)c(C(=O)NCc3ccc(F)cc3F)cn2N(C)C12CCOC2)Oc1ccccc1 (some centres unmarked) [Compound 44] |  |  | 13.4 |
